Source: paper PMC8403366, “Functional significance of gain-of-function H19 lncRNA in skeletal muscle differentiation and anti-obesity effects” (Genome Medicine, 2021)

Tests used:
iPSC-SkMC = assay: Utrophin immunofluorescence in iPSC-SkMC; assay type: cell-based, human; settings: vs AGR-Scr, n = 5
Procedure: For myogenic differentiation, iPSCs were differentiated into skeletal muscle cells using Skeletal Muscle Differentiation Kit (Genea Biocells) according to the manufacturer’s protocol. Briefly, iPSCs were plated onto a collagen I coated plate and maintained for 6–10 days in Skeletal Muscle Induction Medium (Genea Biocells) until confluent. Dissociated myogenic precursors were then plated on a collagen I coated plate and cultured in Skeletal Myoblast Medium (Genea Biocells) for 6–8 days. When confluent, cells were maintained in Myotube Medium or Myotube Fusion Medium (Genea Biocells). Cryopreserved stocks of myoblasts Genea002 were obtained from Genea Biocells. […]
Skeletal muscles were collected and fixed in 10% Neutral Buffered Formalin at 4 °C for 1 h, followed by 10% sucrose/PBS overnight and then 18% sucrose/PBS overnight at 4 °C before being frozen embedded and sectioned. […] Muscle cross-sectional area and fiber numbers were quantified by ImageJ. […] The quantification of IF staining density was performed by Image-pro plus 6.0 (Media Cybernetics) and calculated based on the average staining intensity and the percentage of positively stained cells. To quantify myotube fusion, fusion index was calculated by dividing the number of nuclei in MHC-positive myotubes with ≥ 3 nuclei by the total number of nuclei analyzed in a field.

C57BL/6 J mice [1] = assay: Run-to-exhaustion and sprint treadmill tests; assay type: in vivo, mouse
Procedure: Exhaustion treadmill running and sprint running were used to evaluate the physiological activity of the mice. The mice were repeatedly exercised twice weekly for 2 weeks using a treadmill (Ugo Basile, 57631, Stoelting). For the animal exercise, mice were placed on the horizontal treadmill starting at 5 m/min and kept on for about 10 min. The speed was then increased to 10 m/min for the remaining 30 min. Treadmill training was […] and followed a standardized protocol. When performing the speed test, the mice were placed on a treadmill with a 15° incline. We increased the speed from 6 m/min to 26 m/min at increments of 2 m/min, which each increment lasting 2 min. Mice were considered to have reached the point of exhaustion when they made contact with the grid for a period of time greater than 5 s. The running speed of the mice was recorded and the animals were returned to their cages once exhausted. For the sprint test: the sprint regimen consisted of mice warming up for 3 min at 6 m/min on a 0° incline, followed by a 2 min run at the same speed with a 15° incline. Subsequent runs were performed at a 15° incline. Speed was first increased to 14 m/min for 30 s, followed by 1.5 min of low speed running at 6 m/min. The speed was then increased to 18 m/min for 30 s. Afterwards, we increased the speed from 18 m/min to 24 m/min at 2 m/min increments, with each increment lasting 15 s […]. After that, the mice continued interval running at 6 m/min for 3 min, followed by an increase in the speed from 20 m/min to 32 m/min at 4 m/min increments, with each increment lasting 15 s. This pattern of exercise continued with subsequent intervals running at 6 m/min for 3 min, followed by a sharp increase in speed from 22 m/min to 34 m/min at 4 […], with each increment lasting 15 s. This pattern was repeated with increasing speed until the mice could no longer keep up and gave up on the grid.

Lep^Ob/Ob mice = assay: Leptin deficiency-induced obesity model; assay type: in vivo, mouse
Procedure: The mice used in this study were purchased from Jackson Lab as follows: Lep^Ob/Ob (stock 000632), C57BL/6 J (stock 000664). All animals were from a C57BL/6 J background and housed with a 12 h light/12 h dark cycle in the animal facility with free access to water and food. 4 to 10 mice were used in each group. Exact numbers for each experiment are included in the figure legends.
To determine the effects of H19-Rgof with a skeletal muscle enrichment peptide agrin (AGR-H19-Rgof) on WT C57BL/6 J or Lep^Ob/Ob mice, AGR-tagged oligonucleotides were used. The synthesis and sequence information of AGR-tagged RNA oligonucleotides are described in “Synthesis of H19-Rgof mimics, AGR-H19-Rgof mimics, and Pharmacokinetics (PK) studies.” AGR-Scr (conjugated to scramble oligonucleotides), H19-Rgof, or AGR-H19-Rgof mimics were injected at a dose of 1 mg/kg intraperitoneally into 3-week-old male and female mice. For AGR-H19-Rgof treatment in HFD (Cat # D12492, Research Diets, Inc.)-fed mice, male C57BL/6 J mice were fed with a HFD starting at 6 weeks of age. The AGR-H19-Rgof and AGR-Scr mimics were injected at a dose of 0.5 or 1 mg/kg intraperitoneally every other day starting 2 weeks after the initiation of HFD feeding. Body weight was measured weekly. The general health condition, grooming, and behavior of all animals were monitored daily, and injection sites were checked for signs of redness or edema.
Unless otherwise indicated, mice were fasted for 4–6 h, anesthetized with isoflurane, and sacrificed by heart puncture. Tissues were dissected, weighed, and either dipped in liquid nitrogen or fixed for immunohistochemistry analysis. Individual muscle was dissected on one side of the body and weighed. […]
H&E staining was performed in paraffin-embedded livers to visualize the pattern of lipid accumulation and inflammatory status. […] Adipocyte size (from WAT) was determined with ImageJ software. Sections from five animals per group were used and at least 500 adipocytes per animal were measured from multiple fields.

C57BL/6 J mice [2] = assay: Liver Oil Red O / H&E staining and WAT adipocyte size; assay type: in vivo, mouse
Procedure: H&E staining was performed in paraffin-embedded livers to visualize the pattern of lipid accumulation and inflammatory status. Lipid droplet accumulation in the liver was visualized using Oil Red O (O0625, Sigma) staining of frozen liver sections prepared in an optimum cutting temperature (O.C.T.) compound (4585, Fisher Scientific). Histopathology images were acquired with a light microscope (Olympus). Adipocyte size (from WAT) was determined with ImageJ software. Sections from five animals per group were used and at least 500 adipocytes per animal were measured from multiple fields.

C57BL/6 J mice [3] = assay: Blood analyses (serum lipids, hormones, ALT, AST)
Procedure: Whole blood was collected by tail bleeding from un-anesthetized mice or cardiac puncture from mice under deep terminal anesthesia. Mice have been fasted for 4–6 h before blood collection. Total cholesterol (TC) and triglycerides (TG) were determined by enzymatic assays using commercial kits (BioAssay Systems). Alanine aminotransferase (ALT) and aspartate aminotransferase (AST) levels were measured using Alanine Transaminase Colorimetric Activity Assay Kit (700260, Cayman Chemical) and EnzyChrom Aspartate Transaminase Assay Kit (EASTR-100, BioAssay Systems). Serum levels of leptin (ELM-Leptin-1, RayBiotech), IGF1 (RAB0229, Sigma), IGF2 (RAB0231, Sigma), insulin (90080, Crystal Chem), and testosterone (KGE010, R&D) were measured by ELISA assay according to the manufacturer’s instructions.

[4] = HFD-fed mice, vs AGR-Scr, n = 5

For “N-terminal-ELTNEIPAELTNEIPA-Linker-5'-[2’-F-C][2’-F-U][2’-F-C][2’-F-U][2’-F-U][2’-F-U][2’-F-A][2’-F-U][2’-F-U][2’-F-U][2’-F-C][2’-F-U][2’-F-G][2’-F-A][2’-F-G][2’-F-C][2’-F-U][2’-F-U][2’-F-U][2’-F-C][2’-F-C][2’-F-U][2’-F-A][2’-F-U][2’-F-C][2’-F-U][2’-F-U][2’-F-U][2’-F-C][2’-F-C]-3' [AGR-H19-Rgof]”, the utrophin protein status (iPSC-SkMC) was “elevated”, the running speed (C57BL/6 J mice [1]; [4]) was “elevated” and the total running time (C57BL/6 J mice [1]; [4]) was “elevated”. For the same substance, the “running speed, treadmill exhaustion test” value (C57BL/6 J mice [1]; WT male and female mice, vs Scr-treated controls, n = 15) was “increased speed”, the “maximum running speed, sprint interval treadmill” value (C57BL/6 J mice [1]; WT male and female mice, vs control, n = 10) was “elevated” and the “fatty acid deposition in livers” value (Lep^Ob/Ob mice; Lep^ob/ob mice, Oil Red O, n = 8, 8) was “significantly improved”. The muscle mass (Lep^Ob/Ob mice; Lep^ob/ob mice, vs AGR-Scr, n = 10, 9) was “increased”, the body weight (Lep^Ob/Ob mice; male Lep^ob/ob mice, 8 weeks post-treatment, vs AGR-Scr, n = 10, 9) was “reduced” and the “fatty acid deposition in the liver and WAT” value (C57BL/6 J mice [2]; HFD-fed mice, H&E and Oil Red O, liver weight) was “significantly reduced”. For the same substance, the “adipocyte size in WAT” value (C57BL/6 J mice [2]; WT male mice on chow, H&E, vs AGR-Scr, n = 5) was “reduced”, the “fatty acid accumulation in the liver” value (C57BL/6 J mice [2]; WT male mice on chow, Oil Red O, vs AGR-Scr, n = 8) was “reduced” and the serum triglyceride concentrations (C57BL/6 J mice [3]; HFD-fed male mice, n = 10, 7) was “reduced”. For the same substance, the IGF1 concentration (C57BL/6 J mice [3]; HFD-fed male mice, serum) was “unaltered”, the IGF2 concentration (C57BL/6 J mice [3]; HFD-fed male mice, serum) was “unaltered” and the total cholesterol (C57BL/6 J mice [3]; HFD-fed mice, n = 10, 9) was “reduced”. The leptin (C57BL/6 J mice [3]; HFD-fed mice, serum, n = 7, 7) was “reduced”, the total cholesterol (C57BL/6 J mice [3]; WT mice on chow, serum, vs AGR-Scr, n = 5) was “reduced” and the serum triglyceride concentrations (C57BL/6 J mice [3]; WT mice on chow, vs AGR-Scr, n = 7) was “reduced”.
